Assay results taken from patent publication US20200277571A1, “METHOD FOR AMPLIFYING CONE PHOTORECEPTORS OR ROD PHOTORECEPTORS USING DORSALIZATION SIGNAL TRANSMITTER OR VENTRALIZATION SIGNAL TRANSMITTER” (RIKEN, priority 2017, published 2020).

Columns and labels:
[1] = test system: cone photoreceptor precursor and rod photoreceptor precursor in retinal tissue produced from human ES cells; test: Immunostaining for GFP (CRX::Venus), RXR-γ and NRL of retinal tissue, day 191-192, image analysis; format: cell-based; conditions: for proportion of rod photoreceptor precursor (Rod-like; NRL-positive) / proportion of cone photoreceptor precursor (Cone; RXR-γ-positive and NRL-negative): day 191-192, 100 nM LDN193189 or 100 nM SAG day 22 to day 100; for proportion of rod photoreceptor precursor (Rod-like; NRL-positive) / proportion of cone photoreceptor precursor (Cone; RXR-γ-positive and NRL-negative) / proportion of NRL-positive rod photoreceptor precursor among photoreceptor precursors versus Control group: 0.15 nM BMP4, 500 nM Cyclopamine-KAAD; for proportion of rod photoreceptor precursor (Rod-like; NRL-positive): Control (NUC) about 12.8%; for proportion of cone photoreceptor precursor (Cone; RXR-γ-positive and NRL-negative): Control (NUC) about 22.7%; for proportion of NRL-positive rod photoreceptor precursor among photoreceptor precursors versus Control group: 100 nM LDN193189, 100 nM SAG day 22 to day 100; for proportion of RXR-γ-positive cone photoreceptor precursor among photoreceptor precursors versus Control group: 500 nM Cyclopamine-KAAD or 100 nM SAG day 22 to day 100
Method: A cell aggregate containing a retinal tissue was prepared by the method described in “Kuwahara et al. Nat Commun 2015, 19(6), 6286-” after modification in part. That is, the aforementioned cultured ES cells were individually dispersed using TrypLE Express (Invitrogen), and the individually dispersed human ES cells were suspended in 100 μL of a serum-free medium in a cell non-adhesive 96 well plate (SUMILON spheroid plate, SUMITOMO BAKELITE CO., LTD.) at 9×10^3 cells per well to allow rapid formation of aggregates, after which they were cultured at 37° C., 5% CO2. As the serum-free medium therefor, a serum-free medium obtained by adding 10% KSR, 450 μM 1-monothioglycerol, 1× Chemically defined lipid concentrate, 5 mg/mL BSA, 20 μM Y27632 to a 1:1 mixture of F-12 medium and IMDM medium was used. At 6 days after the start of suspension culture, BMP4 at a final concentration of 1.5 nM was added and suspension culture was continued. A half amount of the culture medium in the well was exchanged with the above-mentioned medium not supplemented with a BMP signal transduction pathway agonist every 3 or 4 days. A cell aggregate containing a retinal tissue at day 18 from the start of suspension culture was cultured in suspension in a serum-free medium (DMEM/F12 medium supplemented with 1% N2 supplement) containing 3 μM CHIR99021 and 5 μM SU5402 for 4 days, namely, up to day 22 from the start of suspension culture. Thereafter, suspension culture of the cell aggregate containing the retinal tissue was continued until it was appropriately used for analysis and the like. As the culture medium during this period, serum-containing media shown in the following to [3] were used and the cell aggregate was cultured under 5% CO2 conditions.
[1] day 22 to day 38 from the start of suspension culture; DMEM/F12 medium supplemented with 10% fetal calf serum, 1% N2 supplement, and 100 μM taurine. day 38 to day 60 from the start of suspension culture; a 1:3 mixed medium of DMEM/F12 medium supplemented with 10% fetal calf serum, 1% N2 supplement, and 100 μM taurine, and Neurobasal medium supplemented with 10% fetal calf serum, 2% B27 supplement, and 100 μM taurine. after day 60 from the start of suspension culture; Neurobasal medium supplemented with 10% fetal calf serum, 2% B27 supplement, and 100 μM taurine.
[1] Control group (FIG. 3a, f, k, p); according to the method described in Example 1, cultured without addition up to day 191 from the start of suspension culture. [2]+BMP group (FIG. 3b, g, 1, q); 0.15 nM BMP4 was added from day 22 to day 100 from the start of suspension culture and cultured up to day 191 from the start of suspension culture. From day 100 to day 191 from the start of suspension culture, cultured in medium described in Example 1. [3]+Cyclopamine-KAAD group (FIG. 3c, h, m, r); 500 nM Cyclopamine-KAAD was added from day 22 to day 100 from the start of suspension culture, and cultured up to day 191 from the start of suspension culture. From day 100 to day 191 from the start of suspension culture, cultured in medium described in Example 1. [4]+LDN193189 group (FIG. 3d, i, n, s); 100 nM LDN193189 was added from day 22 to day 100 from the start of suspension culture, and cultured up to day 191 from the start of suspension culture. From day 100 to day 191 from the start of suspension culture, cultured in medium described in Example 1. [5]+SAG group (FIG. 3e, j, o, t); 100 nM SAG was added from day 22 to day 100 from the start of suspension culture, and cultured up to day 191 from the start of suspension culture. From day 100 to day 191 from the start of suspension culture, cultured in medium described in Example 1. […]

CYP26A1 gene = test: Quantitative PCR of CYP26A1 gene expression in retinal tissue; format: cell-based, human; conditions: about day 70, 0.15 nM BMP4 or 100 nM LDN193189 from day 22
Method: [1] Control group (FIG. 2a, f, k, p); according to the method described in Example 1, culture was performed up to day 70 or day 75 from the start of suspension culture and without addition. [2]+BMP group (FIG. 2b, g, 1, q); 0.15 nM BMP4 was added from day 22 from the start of suspension culture to completion of suspension culture, and cultured up to day 70 or day 75 from the start of suspension culture. [3]+Cyclopamine-KAAD group (FIG. 2c, h, m, r); 500 nM Cyclopamine-KAAD was added from day 22 from the start of suspension culture to completion of the suspension culture, and cultured up to day 70 or day 75 from the start of suspension culture. [4]+LDN193189 group (FIG. 2d, i, n, s); 100 nM LDN193189 was added from day 22 from the start of suspension culture to completion of the suspension culture, and cultured up to day 70 or day 75 from the start of suspension culture. [5]+SAG group (FIG. 2e, j, o, t); 100 nM SAG was added from day 22 from the start of suspension culture to completion of the suspension culture, and cultured up to day 70 or day 75 from the start of suspension culture.
On the other hand, using cDNA on about day 70 from the start of suspension culture, the expression level of CYP26A1 gene was analyzed. […]

[2] = test system: S-opsin, M-opsin, L-opsin; test: Quantitative PCR of S-opsin, M-opsin, L-opsin after maturation culture in serum-free medium; format: cell-based, human; conditions: BMP4 (0-1.35 nM) added in combination with T3 (0-8 nM) in serum-free DMEM/F12 after about day 190, not less than 30 days
Method: By a method similar to the methods described in Example 1 and Example 3, a cell aggregate containing a retinal tissue in a differentiation stage matured to the level that Muller cell was observed was prepared and culture was performed, in the serum-containing medium used, up to about day 190 to give a retinal tissue in a differentiation stage matured to the level that Muller cell was observed. Thereafter, by a method similar to the methods described in Example 11 and 12, further maturation was performed. That is, 0-1.35 nM BMP4 and 0-8 nM T3 were added to a medium obtained by adding 1% N2 supplement and 100 μM taurine but not adding 10% fetal calf serum to DMEM/F12 medium containing glutamic acid as a component, and culture was performed for not less than 30 days from the start of culture for further maturation. A cell aggregate containing a retinal tissue was recovered, quantitatively PCR was performed according to a conventional method, and the expression levels of S-opsin, M-opsin, L-opsin were confirmed. As a result, irrespective of the presence or absence of BMP4, the expression of S-opsin was promoted when T3 was absent.

BMP4: BMP protein; BMP signal transduction pathway agonist used as dorsalization signal transmitter
proportion of rod photoreceptor precursor (Rod-like; NRL-positive) [1]: about 6.1%
proportion of cone photoreceptor precursor (Cone; RXR-γ-positive and NRL-negative) [1]: about 31.3%
proportion of NRL-positive rod photoreceptor precursor among photoreceptor precursors versus Control group ([1]; day 191): reduced
expression of CYP26A1 gene (CYP26A1 gene): promotes
expression of L and M-opsin [2]: promoted

CNC1CCC(N(Cc2cccc(-c3ccncc3)c2)C(=O)c2sc3ccccc3c2Cl)CC1 (stereo not drawn) [SAG]
proportion of rod photoreceptor precursor (Rod-like; NRL-positive) [1]: about 17.2%
proportion of cone photoreceptor precursor (Cone; RXR-γ-positive and NRL-negative) [1]: about 12.6%
proportion of NRL-positive rod photoreceptor precursor among photoreceptor precursors versus Control group ([1]; day 191): increased
proportion of RXR-γ-positive cone photoreceptor precursor among photoreceptor precursors versus Control group ([1]; day 191): low

c1ccc2c(-c3cnn4cc(-c5ccc(N6CCNCC6)cc5)cnc34)ccnc2c1 [LDN193189, 4-[6-(4-piperazin-1-ylphenyl)pyrazolo[1,5-a]pyrimidin-3-yl]quinoline]
proportion of rod photoreceptor precursor (Rod-like; NRL-positive) [1]: about 14.0%
proportion of cone photoreceptor precursor (Cone; RXR-γ-positive and NRL-negative) [1]: about 20.0%
proportion of NRL-positive rod photoreceptor precursor among photoreceptor precursors versus Control group ([1]; day 191): increased
expression of CYP26A1 gene (CYP26A1 gene): suppresses

CC1=C2C[C@H]3[C@@H](CC=C4CC(=O)CC[C@@]43C)[C@@H]2CC[C@]12O[C@@H]1C[C@H](C)CN(CCNC(=O)CCCCCNC(=O)CCc3ccccc3)[C@H]1[C@H]2C [Cyclopamine-KAAD]
proportion of rod photoreceptor precursor (Rod-like; NRL-positive) [1]: about 11.5%
proportion of cone photoreceptor precursor (Cone; RXR-γ-positive and NRL-negative) [1]: about 30.2%
proportion of NRL-positive rod photoreceptor precursor among photoreceptor precursors versus Control group ([1]; day 191): decreased somewhat
CRX::Venus-positive photoreceptor precursor ([1]; day 191, 500 nM Cyclopamine-KAAD day 22 to day 100): can be increased
proportion of RXR-γ-positive cone photoreceptor precursor among photoreceptor precursors versus Control group ([1]; day 191): can increase
